pIC50: −log10 of the molar value.
Experiments:
[1] = target: T1, human PAR-2 (hPAR-2) receptor expressed in HEK-293 T cells in an endogenous manner (Homo sapiens, UniProt P55085); test: In vitro human PAR-2 functional antagonist activity using calcium assays (Fluo4AM, FLIPR Tetra); format: cell-based; conditions: HEK-293 T cells stimulated by an EC80 of the 2-Furoyl-LIGRLO-NH2 peptide after 10 min incubation with compound; 20 concentrations, duplicate, two independent experiments
T1 construct: human PAR-2 (hPAR-2) receptor expressed in HEK-293 T cells in an endogenous manner; endogenous in cells; host or cells: HEK-293 T cells
T1 sequence (P55085 26-397): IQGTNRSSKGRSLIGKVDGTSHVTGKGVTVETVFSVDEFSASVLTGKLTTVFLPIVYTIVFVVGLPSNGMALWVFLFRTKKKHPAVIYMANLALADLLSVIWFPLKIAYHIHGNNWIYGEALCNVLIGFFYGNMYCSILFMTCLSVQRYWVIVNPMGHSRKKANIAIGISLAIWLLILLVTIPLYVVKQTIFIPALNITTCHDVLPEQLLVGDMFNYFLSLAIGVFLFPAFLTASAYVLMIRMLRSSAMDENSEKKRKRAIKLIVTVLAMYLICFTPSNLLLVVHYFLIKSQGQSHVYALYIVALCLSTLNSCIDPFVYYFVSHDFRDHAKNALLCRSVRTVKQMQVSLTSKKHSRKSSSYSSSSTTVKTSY
How it was run: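 Fluo4AM-loaded HEK-293 T cells were exposed to compound for 10 min to read agonist effect. They were then stimulated with an EC80 of 2-Furoyl-LIGRLO-NH2 and intracellular calcium was recorded for 5 more min on FLIPR. Antagonism was scored against buffer basal and EC80 agonist-alone signals.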

Row | pIC50 [1] | melting point | SMILES
1 | < 5.00 | > 250 °C | CC(C)Cn1cc(C2CCOCC2)c2ccc(C(=O)N3CCNC(=O)C3(C)C)nc21 [Example 46, 4-(1-isobutyl-3-(tetrahydro-2H-pyran-4-yl)-1H-pyrrolo[2,3-b]pyridine-6-carbonyl)-3,3-dimethylpiperazin-2-one]
2 | 5.00 to 7.70 | 216 to 218 °C | CC(C)Cn1cc(-c2ccc(C(F)(F)F)cc2)c2ccc(C(=O)N3CCNC(=O)C3(C)C)nc21 [Example 55, 4-[1-isobutyl-3-[4-(trifluoromethyl)phenyl]pyrrolo[2,3-b]pyridine-6-carbonyl]-3,3-dimethyl-piperazin-2-one]
3 | 5.00 to 7.70 |  | Cc1cc2c(-c3ccc(Cl)c(F)c3)cn(CC(C)C)c2nc1C(=O)N1CCN(c2cc(C)c(C(=O)O)c(C)n2)CC1(C)C [Example 174, 6-(4-(3-(4-chloro-3-fluorophenyl)-1-isobutyl-5-methyl-1H-pyrrolo[2,3-b]pyridine-6-carbonyl)-3,3-dimethylpiperazin-1-yl)-2,4-dimethylnicotinic acid]
4 | 5.00 to 7.70 |  | CC1(C)C(=O)NCCN1C(=O)c1ccc2c(-c3ccc(Cl)c(F)c3)cn(Cc3ccncc3)c2n1 [Example 120, 4-(3-(4-chloro-3-fluorophenyl)-1-(pyridin-4-ylmethyl)-1H-pyrrolo[2,3-b]pyridine-6-carbonyl)-3,3-dimethylpiperazin-2-one]
5 | > 7.70 |  | Cc1cc(N2CCN(C(=O)c3ccc4c(-c5ccc(F)c(F)c5)cn(C(C)(C)C)c4n3)C(C)(C)C2)nc(C)c1C(=O)O [Example 191, 6-(4-(1-(tert-butyl)-3-(3,4-difluorophenyl)-1H-pyrrolo[2,3-b]pyridine-6-carbonyl)-3,3-dimethylpiperazin-1-yl)-2,4-dimethylnicotinic acid]
6 | 5.00 to 7.70 |  | CC(C)Cn1cc(-c2ccc3c(c2)OCO3)c2ccc(C(=O)N3CCNC(=O)C3(C)C)nc21 [Example 223, 4-(3-(benzo[d][1,3]dioxol-5-yl)-1-isobutyl-1H-pyrrolo[2,3-b]pyridine-6-carbonyl)-3,3-dimethylpiperazin-2-one]
7 | 5.00 to 7.70 |  | Cc1cc(NC2CCN(C(=O)c3ccc4c(-c5ccc(Cl)c(F)c5)cn(C(C)(C)C)c4n3)CC2)nc(C)c1C(=O)O [Example 100, 6-((1-(1-(tert-butyl)-3-(4-chloro-3-fluorophenyl)-1H-pyrrolo[2,3-b]pyridine-6-carbonyl)piperidin-4-yl)amino)-2,4-dimethylnicotinic acid]
8 | > 7.70 |  | Cc1cc(N2CCN(C(=O)c3ccc4c(-c5ccc(Cl)c(F)c5)cn(CC5CCC5)c4n3)C(C)(C)C2)nc(C)c1C(=O)O [Example 171, 6-(4-(3-(4-chloro-3-fluorophenyl)-1-(cyclobutylmethyl)-1H-pyrrolo[2,3-b]pyridine-6-carbonyl)-3,3-dimethylpiperazin-1-yl)-2,4-dimethylnicotinic acid]
9 | > 7.70 |  | Cc1cc(N2CCN(C(=O)c3ccc4c(-c5ccc(Cl)c(F)c5)cn(C(C)(C)C)c4n3)CC2)nc(C)c1C(=O)O [Example 99, 6-(4-(1-(tert-butyl)-3-(4-chloro-3-fluorophenyl)-1H-pyrrolo[2,3-b]pyridine-6-carbonyl)piperazin-1-yl)-2,4-dimethylnicotinic acid]
10 | 5.00 to 7.70 |  | CC(C)(C)n1cc(-c2ccc(Cl)c(F)c2)c2ccc(C(=O)N3CCC4(NC(=O)NC4=O)C(C)(C)C3)nc21 (stereo not shown) [Example 200, 8-(1-(tert-butyl)-3-(4-chloro-3-fluorophenyl)-1H-pyrrolo[2,3-b]pyridine-6-carbonyl)-6,6-dimethyl-1,3,8-triazaspiro[4.5]decane-2,4-dione]
11 | 5.00 to 7.70 |  | CC(C)Cn1cc(-c2ccccc2Cl)c2ccc(C(=O)N3CCNC(=O)C3(C)C)nc21 [Example 53, 4-[3-(2-chlorophenyl)-1-isobutyl-pyrrolo[2,3-b]pyridine-6-carbonyl]-3,3-dimethyl-piperazin-2-one]
12 | < 5.00 |  | CC(C)Cc1nn(-c2ccc(Cl)c(F)c2)c2ccc(C(=O)N3CCN(C)C(=O)C3)nc12 [Example 63, 4-(1-(4-chloro-3-fluorophenyl)-3-isobutyl-1H-pyrazolo[4,3-b]pyridine-5-carbonyl)-1-methylpiperazin-2-one]
13 | < 5.00 |  | CC(C)Cc1nn(-c2ccccc2Cl)c2ccc(C(=O)N3CCNC(=O)C3(C)C)nc12 [Example 74, 4-(1-(2-chlorophenyl)-3-isobutyl-1H-pyrazolo[4,3-b]pyridine-5-carbonyl)-3,3-dimethylpiperazin-2-one]
14 | 5.00 to 7.70 |  | CC(C)Cn1cc(-c2ccc(C#N)cc2)c2ccc(C(=O)N3CCNC(=O)C3(C)C)nc21 [Example 106, 4-(6-(2,2-dimethyl-3-oxopiperazine-1-carbonyl)-1-isobutyl-1H-pyrrolo[2,3-b]pyridin-3-yl)benzonitrile]
15 | > 7.70 |  | Cc1cc(N2CCN(C(=O)c3ccc4c(-c5ccc(Cl)c(F)c5)cn(C(C)(C)C)c4n3)C(C)(C)C2)cc(C)c1C(=O)O [Example 210, 4-(4-(1-(tert-butyl)-3-(4-chloro-3-fluorophenyl)-1H-pyrrolo[2,3-b]pyridine-6-carbonyl)-3,3-dimethylpiperazin-1-yl)-2,6-dimethylbenzoic acid]
16 | 5.00 to 7.70 |  | CC(C)(C)n1cc(-c2ccc(Cl)c(F)c2)c2ccc(C(=O)N3CCC(CC(=O)O)CC3)nc21 [Example 125, 2-(1-(1-(tert-butyl)-3-(4-chloro-3-fluorophenyl)-1H-pyrrolo[2,3-b]pyridine-6-carbonyl)piperidin-4-yl)acetic acid]
17 | > 7.70 |  | CC[C@@H](C)n1cc(-c2ccc(Cl)c(F)c2)c2ccc(C(=O)N3CCN(c4cc(C)c(C(=O)O)c(C)n4)CC3(C)C)nc21 [Example 165, (R)-6-(4-(1-(sec-butyl)-3-(4-chloro-3-fluorophenyl)-1H-pyrrolo[2,3-b]pyridine-6-carbonyl)-3,3-dimethylpiperazin-1-yl)-2,4-dimethylnicotinic acid]
18 | > 7.70 |  | CCOCC(C)(C)n1cc(-c2ccc(Cl)c(F)c2)c2ccc(C(=O)N3CCN(c4cc(C)c(C(=O)O)c(C)n4)CC3(C)C)nc21 [Example 126, 6-(4-(3-(4-chloro-3-fluorophenyl)-1-(1-ethoxy-2-methylpropan-2-yl)-1H-pyrrolo[2,3-b]pyridine-6-carbonyl)-3,3-dimethylpiperazin-1-yl)-2,4-dimethylnicotinic acid]
19 | > 7.70 |  | Cc1cc(N2CCN(C(=O)c3ccc4c(-c5ccc(Cl)c(F)c5)cn(CC5CC5)c4n3)C(C)(C)C2)nc(C)c1C(=O)O [Example 160, 6-(4-(3-(4-chloro-3-fluorophenyl)-1-(cyclopropylmethyl)-1H-pyrrolo[2,3-b]pyridine-6-carbonyl)-3,3-dimethylpiperazin-1-yl)-2,4-dimethylnicotinic acid]
20 | 5.00 to 7.70 |  | CN1CCN(C(=O)c2ccc3c(-c4ccc(Cl)c(F)c4)cn(C(C)(C)C)c3n2)CC1=O [Example 20, 4-(1-(tertbutyl)-3-(4-chloro-3-fluorophenyl)-1H-pyrrolo[2,3-b]pyridine-6-carbonyl)-1-methylpiperazin-2-one]
21 | 5.00 to 7.70 |  | CC(C)Cc1nn(-c2ccc(Cl)c(F)c2)c2ccc(C(=O)N3CCNC(=O)C3(C)C)nc12 [Example 62, 4-(1-(4-chloro-3-fluorophenyl)-3-isobutyl-1H-pyrazolo[4,3-b]pyridine-5-carbonyl)-3,3-dimethylpiperazin-2-one]
22 | > 7.70 |  | Cc1ccc(-c2cn(CC(C)C)c3nc(C(=O)N4CCN(c5cc(C)c(C(=O)O)c(C)n5)CC4(C)C)ccc23)cc1F [Example 142, 6-(4-(3-(3-fluoro-4-methylphenyl)-1-isobutyl-1H-pyrrolo[2,3-b]pyridine-6-carbonyl)-3,3-dimethylpiperazin-1-yl)-2,4-dimethylnicotinic acid]
23 | < 5.00 |  | Cc1cc(N2CCC3(CCN(C(=O)c4ccc5c(-c6ccc(Cl)c(F)c6)cn(C(C)(C)C)c5n4)C3)C2)nc(C)c1C(=O)O (stereo not shown) [Example 128, 6-(7-(1-(tert-butyl)-3-(4-chloro-3-fluorophenyl)-1H-pyrrolo[2,3-b]pyridine-6-carbonyl)-2,7-diazaspiro[4.4]nonan-2-yl)-2,4-dimethylnicotinic acid]
24 | 5.00 to 7.70 |  | CC(C)Cn1cc(-c2ccc(Cl)c(F)c2)c2ccc(C(=O)N3CCC(CC(=O)O)CC3)cc21 [Example 204, 2-(1-(3-(4-chloro-3-fluorophenyl)-1-isobutyl-1H-indole-6-carbonyl)piperidin-4-yl)acetic acid]
25 | > 7.70 |  | COCC(C)(C)n1cc(-c2ccc(Cl)c(F)c2)c2ccc(C(=O)N3CCN(c4cc(C)c(C(=O)O)c(C)n4)CC3(C)C)nc21 [Example 152, 6-(4-(3-(4-chloro-3-fluorophenyl)-1-(1-methoxy-2-methylpropan-2-yl)-1H-pyrrolo[2,3-b]pyridine-6-carbonyl)-3,3-dimethylpiperazin-1-yl)-2,4-dimethylnicotinic acid]
26 | 5.00 to 7.70 |  | Cc1cc(N(C)[C@@H]2CCN(C(=O)c3ccc4c(-c5ccc(Cl)c(F)c5)cn(C(C)(C)C)c4n3)C2)nc(C)c1C(=O)O [Example 155, (R)-6-((1-(1-(tert-butyl)-3-(4-chloro-3-fluorophenyl)-1H-pyrrolo[2,3-b]pyridine-6-carbonyl)pyrrolidin-3-yl)(methyl)amino)-2,4-dimethylnicotinic acid]
